The text below walks through data of publication PMC6522510 (Nature Communications, 2019).

Structures are written as SMILES.

Among the test systems are MOLM-13; MV4-11; M07e; U937; CHRF288-11; ML-2; CMS; CMK.
Common to all, as to parameters: species or system AML cell lines (8); Primary HTS, single concentration about 10 uM, Cell Titer Glo viability; log10 luminescence, per cent inhibition relative to cycloheximide control
Conditions in all cases: 72 h, relative to cycloheximide control, log10 luminescence; inhibitor

Turning to `O=C(Nc1n[nH]c2cc(-c3ccccc3)ccc12)C1CC1` [SJ000573067-1, VB100064-117A1], the MOLM-13 %inh in the assay with MOLM-13 stood at 40.31%. The MV4-11 %inh in the assay on MV4-11 is listed as 0.9726%. Moreover, the M07e %inh with M07e is listed as 17.84%. The U937 %inh in the assay with U937 is reported as 46.5%. Besides, the CHRF288-11 %inh with CHRF288-11 stood at 40.96%. The ML-2 %inh with ML-2 came out at 19.77%. In the assay with CMS, the CMS %inh is recorded as 3.176%. Further, the CMK %inh in the assay with CMK was found to be 85.27%.

For the compound `Cc1cc(O)cc(C)c1/C=C/c1cncc(C(N)=O)c1` [SJ000573068-1, U11805/173/2], the MOLM-13 %inh in the assay on MOLM-13 is on record as 75.99%. Further, the MV4-11 %inh with MV4-11 turned out to be 70.37%. In addition, the M07e %inh in the assay with M07e was 72.97%. Further, the U937 %inh with U937 is given as 80.88%. Also, in the assay on CHRF288-11, the CHRF288-11 %inh is given as 44.74%. Moreover, the ML-2 %inh with ML-2 was 51.45%. Moreover, the CMS %inh with CMS amounted to 51.62%. Besides, the CMK %inh in the assay on CMK was determined as 90.65%.

As for `CNC(=O)c1cncc(/C=C/c2ccccc2C)c1` [SJ000573069-1, U12068/59/1], the MOLM-13 %inh with MOLM-13 is recorded as -1.542%. Besides, the MV4-11 %inh with MV4-11 is -0.4269%. In the assay on M07e, the M07e %inh amounted to 4.224%. Also, the U937 %inh in the assay on U937 is reported as -1.047%. For the same compound, the CHRF288-11 %inh in the assay on CHRF288-11 is reported as -2.201%. For the same compound, the ML-2 %inh in the assay on ML-2 is -0.01519%. The CMS %inh in the assay with CMS was found to be 0.1448%. In the assay on CMK, the CMK %inh was -3.696%.

Regarding `CNC(=O)c1cncc(/C=C/c2ccccc2Cl)c1` [SJ000573070-1, U12068/61/1], in the assay with MOLM-13, the MOLM-13 %inh was found to be 4.101%. Besides, the MV4-11 %inh in the assay with MV4-11 is on record as -1.892%. Further, the M07e %inh with M07e worked out at 31.9%. Besides, the U937 %inh in the assay on U937 is recorded as 0.1459%. Further, in the assay with CHRF288-11, the CHRF288-11 %inh was found to be 33.2%. In addition, the ML-2 %inh in the assay on ML-2 was found to be 26.34%. The CMS %inh in the assay on CMS was -0.2342%. Moreover, the CMK %inh in the assay on CMK is given as 93.63%.

As to `CS(=O)(=O)CCNCc1nc(-c2ccc3ncnc(Nc4ccc(OCc5cccc(C(F)(F)F)c5)cc4)c3c2)cs1` [SJ000573071-1, U14859/60/2], the MOLM-13 %inh in the assay with MOLM-13 is reported as 70.81%. Further, the MV4-11 %inh in the assay on MV4-11 is on record as 64.74%. For the same compound, the M07e %inh with M07e was found to be 1.42%. Also, the U937 %inh in the assay with U937 is reported as 0.6329%. In addition, the CHRF288-11 %inh in the assay with CHRF288-11 is recorded as -1.328%. Further, the ML-2 %inh in the assay on ML-2 was 1.048%. Also, the CMS %inh in the assay on CMS is reported as 1.221%. The CMK %inh in the assay on CMK was 3.287%.

On to `c1ccc(Nc2ncc(-c3ccccc3)o2)cc1` [SJ000573072-1, U13103/99/1], for which, in the assay with MOLM-13, the MOLM-13 %inh came to 84.62%. The MV4-11 %inh in the assay on MV4-11 is on record as 59.12%. In addition, the M07e %inh in the assay on M07e is on record as -2.471%. In addition, the U937 %inh in the assay on U937 came out at 3.569%. For the same compound, the CHRF288-11 %inh with CHRF288-11 is given as 2.769%. In addition, the ML-2 %inh in the assay with ML-2 is reported as 3.842%. For the same compound, the CMS %inh in the assay with CMS is on record as -0.2616%. Further, in the assay on CMK, the CMK %inh is on record as 6.254%.

With `COc1ccc(-c2nn3ncccc3c2-c2ccnc(Nc3ccc(Cl)c(C(F)(F)F)c3)n2)cc1` [SJ000573073-1, U17838/183/2], in the assay on MOLM-13, the MOLM-13 %inh is reported as -0.8658%. For the same compound, in the assay on MV4-11, the MV4-11 %inh turned out to be 3.163%. Moreover, the M07e %inh in the assay on M07e is -2.862%. Moreover, the U937 %inh in the assay on U937 stood at 0.7639%. The CHRF288-11 %inh in the assay with CHRF288-11 stood at 1.294%. The ML-2 %inh in the assay on ML-2 was -1.529%. Also, the CMS %inh in the assay on CMS is reported as 0.1387%. The CMK %inh in the assay on CMK is given as 3.073%.

As for `CN1CCC(C(=O)Nc2n[nH]c3nnc(-c4ccccc4)cc23)CC1` [SJ000573074-1, JW48822-132A0], in the assay with MOLM-13, the MOLM-13 %inh is recorded as 8.108%. For the same compound, the MV4-11 %inh in the assay on MV4-11 was 34.03%. The M07e %inh with M07e is recorded as 2.861%. The U937 %inh with U937 stood at 1.724%. In addition, the CHRF288-11 %inh in the assay with CHRF288-11 was found to be 65.15%. Besides, the ML-2 %inh in the assay with ML-2 was 3.693%. Also, in the assay on CMS, the CMS %inh is listed as 83.36%. The CMK %inh in the assay with CMK is 70.18%.

For the compound `C#Cc1cccc(Nc2ncnc3ccc(OCCCCNCCS(C)(=O)=O)cc23)c1` [SJ000573075-1, U14819/194/1], the MOLM-13 %inh with MOLM-13 was found to be 9.087%. In addition, in the assay on MV4-11, the MV4-11 %inh is reported as -0.7985%. Also, the M07e %inh in the assay on M07e is listed as -0.9936%. The U937 %inh with U937 is reported as -0.213%. Moreover, the CHRF288-11 %inh in the assay on CHRF288-11 is 4.443%. For the same compound, the ML-2 %inh in the assay on ML-2 worked out at 4.028%. Besides, the CMS %inh in the assay on CMS was found to be 3.196%. Also, the CMK %inh with CMK is on record as 9.032%.

`O=C1Nc2ccc(C(=O)c3ccco3)cc2C1=Cc1cc(Cl)c(O)c(Cl)c1` [SJ000573076-1, U12068/71/3]: the MOLM-13 %inh with MOLM-13 is recorded as 0.2179%. Moreover, in the assay on MV4-11, the MV4-11 %inh was 1.256%. The M07e %inh in the assay with M07e was found to be 2.097%. Also, the U937 %inh with U937 is -1.189%. Moreover, in the assay on CHRF288-11, the CHRF288-11 %inh is 1.037%. Also, the ML-2 %inh in the assay with ML-2 is recorded as 3.323%. For the same compound, the CMS %inh in the assay on CMS was found to be 3.176%. The CMK %inh with CMK is -2.763%.

For `Cc1ccc2c(-c3ccnc(Nc4ccccc4)n3)c(-c3ccc(F)cc3)nn2n1` [SJ000573077-1, U18020/155/1], the MOLM-13 %inh with MOLM-13 is -1.366%. In addition, the MV4-11 %inh in the assay with MV4-11 is given as -0.5842%. Besides, the M07e %inh with M07e worked out at 7.072%. In the assay with U937, the U937 %inh was 0.3541%. Besides, the CHRF288-11 %inh in the assay with CHRF288-11 was determined as 5.564%. In addition, the ML-2 %inh in the assay with ML-2 is 0.6284%. The CMS %inh in the assay on CMS is on record as 18.56%. For the same compound, the CMK %inh in the assay with CMK was determined as 0.5232%.

For `COc1ccc(-c2nn3ncccc3c2-c2ccnc(Nc3ccc4c(c3)OCCO4)n2)cc1` [SJ000573078-1, U17838/181/2], the MOLM-13 %inh with MOLM-13 is 3.964%. In addition, in the assay with MV4-11, the MV4-11 %inh is listed as -0.1391%. Moreover, in the assay with M07e, the M07e %inh came to 5.255%. Moreover, the U937 %inh in the assay on U937 came to 3.638%. Further, the CHRF288-11 %inh in the assay on CHRF288-11 is listed as 4.025%. The ML-2 %inh in the assay with ML-2 turned out to be 1.307%. In addition, the CMS %inh with CMS was 4.836%. Moreover, in the assay with CMK, the CMK %inh is on record as -0.1559%.

Take `COc1ccc(-c2nn3ncccc3c2-c2ccnc(Nc3cccc(C(F)(F)F)c3)n2)cc1` [SJ000573079-1, U17838/180/3]: the MOLM-13 %inh with MOLM-13 stood at 3.38%. Further, the MV4-11 %inh in the assay with MV4-11 is reported as 8.211%. Further, in the assay with M07e, the M07e %inh came to 14.72%. The U937 %inh in the assay with U937 is 2.119%. Further, the CHRF288-11 %inh with CHRF288-11 is 5.707%. Also, the ML-2 %inh in the assay with ML-2 is -0.6403%. Further, the CMS %inh in the assay with CMS is 13.73%. In addition, in the assay with CMK, the CMK %inh came to 4.001%.

On to `FC(F)(F)c1cccc(-c2nn3ncccc3c2-c2ccnc(Nc3ccc4c(c3)OCCO4)n2)c1` [SJ000573080-1, U18020/138/1], for which the MOLM-13 %inh with MOLM-13 is 3.832%. Further, the MV4-11 %inh with MV4-11 is 2.308%. Besides, the M07e %inh in the assay on M07e is listed as -0.1766%. Moreover, the U937 %inh with U937 was 3.041%. Moreover, in the assay on CHRF288-11, the CHRF288-11 %inh worked out at 0.7655%. Besides, the ML-2 %inh with ML-2 is on record as 2.472%. The CMS %inh with CMS turned out to be 2.426%. For the same compound, the CMK %inh in the assay on CMK stood at 6.614%.

On to `Fc1ccc(-c2nn3ncccc3c2-c2ccnc(Nc3ccc4c(c3)OCCO4)n2)cc1` [SJ000573081-1, U18020/136/2], for which the MOLM-13 %inh with MOLM-13 was 1.143%. Besides, the MV4-11 %inh in the assay on MV4-11 is given as 14.42%. Further, the M07e %inh with M07e is recorded as 1.748%. Also, the U937 %inh in the assay on U937 was determined as 35.33%. Further, the CHRF288-11 %inh in the assay with CHRF288-11 amounted to 0.4339%. Besides, the ML-2 %inh in the assay with ML-2 is listed as -1.741%. Moreover, in the assay with CMS, the CMS %inh amounted to 13.71%. In addition, in the assay on CMK, the CMK %inh is 3.915%.
